These results are taken from PMC7497412 (RSC Advances, 2020).

One assay deals with M. tb V4207/DS. The assay can be described thus: microbe, parasite or virus in culture. Type of assay: cell-based. The settings on record: Mycobacterium tuberculosis, read-out: M. tb MIC V4207/DS.
The next assay relates to M. avium. The assay can be described thus: MIC against M. avium. The assay is classed as cell-based. The settings on record: Mycobacterium avium, read-out: M. avium MIC.
The test system of a further assay is M. abs. The assay can be described thus: MIC against M. abs. The assay is classed as cell-based, Mycobacterium abscessus. The following applies: Mycobacteroides abscessus, read-out: M. abs MIC.
The test system of the next assay is Vero cells. The assay can be described thus: Cytotoxicity on Vero cells. The settings on record: for SI (selectivity index): SI = IC50(Vero)/MIC. Type of assay: cell-based.
Where [1] appears, read: Chlorocebus sabaeus, Vero, read-out: IC50 Vero cells, cytotoxicity, Vero cells.
Setting [2] is: read-out: IC50 Vero cells, cytotoxicity, Vero cells.

Each structure is given as a SMILES string. In brackets after ≈: the same amount, converted by molar mass. Like-named read-outs stand apart in the source and are kept apart here.

As to `O=C(Nc1nc(-c2ccc(Cl)cc2Cl)cs1)C12CC3CC(CC(C3)C1)C2` [18b, N-(4-(2,4-Dichlorophenyl)thiazol-2-yl)adamantane-1-carboxamide], the MIC with M. tb V4207/DS was 9.82 µM (≈ 4 µg/mL); in the assay on M. avium it was greater than 157 µM; in the assay on M. abs, greater than 157 µM. In addition, the IC50 was 9.82 to 39.9 µM in the assay on Vero cells (setting [1]) and 9.82 µM with Vero cells (setting [2]). In the assay on Vero cells, the “SI (selectivity index)” value was found to be 1.
With `O=C(NC1CCCCCCC1)c1ccc2ccccc2c1` [13c, N-Cyclooctyl-2-naphthamide], the MIC in the assay with M. tb V4207/DS was 7.11 µM (≈ 2 µg/mL); in the assay with M. avium, greater than 227 µM; in the assay with M. abs it was greater than 227 µM. The 50% inhibitory concentration (IC50) with Vero cells (setting [1]) is no less than 227 µM. Moreover, in the assay with Vero cells, the “SI (selectivity index)” value is no less than 32.
For `O=C(NC12CC3CC(CC(C3)C1)C2)c1cc(=O)c2c(Br)cccc2[nH]1` [8i, N-(1-Adamantanyl)-5-bromo-4-oxo-1,4-dihydroquinoline-2-carboxamide], the MIC is 9.97 µM (≈ 4 µg/mL) in the assay on M. tb V4207/DS, greater than 159 µM in the assay on M. avium and greater than 159 µM with M. abs. The “SI (selectivity index)” value in the assay on Vero cells came out at 4.
As for `O=C(NC12CC3CC(CC(C3)C1)C2)c1ccc2ccccc2c1` [13d, N-(1-Adamantanyl)-2-naphthamide], the values for the MIC with M. tb V4207/DS, with M. avium and in the assay with M. abs were 6.55 to 13.1 µM (≈ 2 to 4 µg/mL), greater than 209 µM and greater than 209 µM, respectively. The IC50 is no less than 227 µM in the assay with Vero cells (setting [1]) and no less than 419 µM in the assay with Vero cells (setting [2]). In addition, in the assay on Vero cells, the “SI (selectivity index)” value is given as no less than 64.

In general, IC50 refers to the concentration needed to halve the response being measured.
